Assay results: US5798336A, “Antimicrobial peptides” (priority 1995, dated 1998)
Like-named read-outs stand apart in the source and are kept apart here. Where a SMILES comes first, the peptide text is derived from it.

Key:
[1] = tested on: N. gonorrhoeae strain WS1
S. aureus strain 8325-4 [2] = settings: strain 8325-4, 500
S. aureus strain 8325-4 [3] = settings: for % Survival of S. aureus: Table 3, all peptides at 5×10^-4 M

Molecule: CSCC[C@H](NC(=O)[C@H](CO)NC(=O)[C@@H](NC(=O)[C@H](CCCNC(=N)N)NC(=O)CNC(=O)[C@H](Cc1c[nH]c2ccccc12)NC(=O)CNC(=O)[C@H](C)NC(=O)[C@@H](NC(=O)[C@@H](NC(=O)[C@@H](N)CS)[C@@H](C)O)C(C)C)C(C)C)C(=O)N[C@@H](CCCNC(=N)N)C(=O)N[C@@H](CCCNC(=N)N)C(=O)NCC(=O)N[C@H](C(=O)O)[C@@H](C)O [CG 122-136] (H-CTVAGWGRVSMRRGT-OH)
- Log Kill (500 μg/ml) P. aeruginosa ATCC 27853 (P. aeruginosa ATCC 27853; ATCC 27853, 500): 4.75 log
- Log Kill (500 μg/ml) N. gonorrhoeae strain WS1 ([1]; strain WS1, 500): 4.18 log
- Log Kill (500 μg/ml) S. aureus strain 8325-4 (S. aureus strain 8325-4 [2]): 0 log

Molecule: CSCC[C@H](NC(=O)[C@H](CO)NC(=O)[C@@H](NC(=O)[C@H](CCCNC(=N)N)NC(=O)CNC(=O)[C@@H](N)Cc1c[nH]c2ccccc12)C(C)C)C(=O)N[C@@H](CCCNC(=N)N)C(=O)N[C@@H](CCCNC(=N)N)C(=O)NCC(=O)N[C@H](C(=O)O)[C@@H](C)O [CG 127-136] (H-WGRVSMRRGT-OH)
- Log Kill (500 μg/ml) P. aeruginosa ATCC 27853 (P. aeruginosa ATCC 27853; ATCC 27853, 500): 0.27 log
- Log Kill (500 μg/ml) N. gonorrhoeae strain WS1 ([1]; strain WS1, 500): 3.20 log
- Log Kill (500 μg/ml) S. aureus strain 8325-4 (S. aureus strain 8325-4 [2]): 0 log

Molecule: CC[C@H](C)[C@H](NC(=O)[C@H](CCCNC(=N)N)NC(=O)[C@H](CC(C)C)NC(=O)[C@H](CS)NC(=O)[C@H](CCC(N)=O)NC(=O)[C@H](CCCNC(=N)N)NC(=O)[C@H](CC(=O)O)NC(=O)[C@H](CCCNC(=N)N)NC(=O)[C@H](CCC(N)=O)NC(=O)[C@@H](NC(=O)[C@H](CCCNC(=N)N)NC(=O)[C@H](CC(C)C)NC(=O)[C@H](CCC(N)=O)NC(=O)[C@@H](NC(=O)[C@H](CCC(=O)O)NC(=O)[C@H](CCCNC(=N)N)NC(=O)[C@H](CC(C)C)NC(=O)[C@@H](NC(=O)[C@@H](N)CC(=O)O)[C@@H](C)O)C(C)C)C(C)C)C(=O)N[C@@H](Cc1ccccc1)C(=O)O [CG 137-156] (H-DTLREVQLRVQRDRQCLRIF-OH)
- Log Kill (500 μg/ml) P. aeruginosa ATCC 27853 (P. aeruginosa ATCC 27853; Table 6, crude peptides 500 μg/ml, about 10^7 CFU/ml, 1/100 strength HBSS): 0.01 log
- Log Kill (500 μg/ml) N. gonorrhoeae strain WS1 ([1]; Table 6, crude peptides 500 μg/ml, 1/100 strength HBSS): 0.43 log

Molecule: CC[C@H](C)[C@H](NC(=O)[C@H](CCC(N)=O)NC(=O)[C@H](CCCNC(=N)N)NC(=O)[C@H](CCCNC(=N)N)NC(=O)[C@@H]1CCCN1C(=O)[C@H](CC(=O)O)NC(=O)[C@H](Cc1ccc(O)cc1)NC(=O)[C@H](CO)NC(=O)CN)C(=O)N[C@@H](CS)C(=O)N[C@H](C(=O)NCC(=O)N[C@@H](CC(=O)O)C(=O)N[C@@H](CCCNC(=N)N)C(=O)N[C@@H](CCCNC(=N)N)C(=O)N[C@@H](CCC(=O)O)C(=O)N[C@@H](CCCNC(=N)N)C(=O)N[C@@H](CCCCN)C(=O)N[C@@H](C)C(=O)N[C@@H](C)C(=O)O)C(C)C [CG 157-176] (H-GSYDPRRQICVGDRRERKAA-OH)
- Log Kill (500 μg/ml) P. aeruginosa ATCC 27853 (P. aeruginosa ATCC 27853; ATCC 27853, 500): 1.02 log
- Log Kill (500 μg/ml) N. gonorrhoeae strain WS1 ([1]; strain WS1, 500): -0.18 log

Molecule: CC[C@H](C)[C@H](NC(=O)CNC(=O)[C@H](Cc1c[nH]cn1)NC(=O)[C@H](C)NC(=O)[C@@H](NC(=O)[C@H](CC(N)=O)NC(=O)[C@H](CC(N)=O)NC(=O)[C@H](CS)NC(=O)[C@H](CC(C)C)NC(=O)[C@H](CC(C)C)NC(=O)[C@@H]1CCCN1C(=O)CNC(=O)CNC(=O)[C@H](CO)NC(=O)[C@H](CC(=O)O)NC(=O)CNC(=O)[C@H](CCCCN)NC(=O)[C@@H](N)Cc1ccccc1)C(C)C)C(=O)N[C@H](C(=O)N[C@@H](CO)C(=O)N[C@@H](Cc1ccc(O)cc1)C(=O)O)C(C)C [CG 177-197] (H-FKGDSGGPLLCNNVAHGIVSY-OH)
- Log Kill (500 μg/ml) P. aeruginosa ATCC 27853 (P. aeruginosa ATCC 27853; ATCC 27853, 500): -0.79 log
- Log Kill (500 μg/ml) N. gonorrhoeae strain WS1 ([1]; strain WS1, 500): 0.68 log

Molecule: CC[C@H](C)[C@H](N)C(=O)N[C@H](C(=O)NCC(=O)NCC(=O)N[C@@H](CCCNC(=N)N)C(=O)O)[C@@H](C)CC [IIGGR] (H-IIGGR-OH)
- ED50 (S. aureus strain 8325-4 [3]): 430 µM

Molecule: CC[C@H](C)[C@H](N)C(=O)N[C@H](C(=O)NCC(=O)NCC(=O)N[C@@H](CCCNC(=N)N)C(=O)O)C(C)C [IVGGR] (H-IVGGR-OH)
- ED50 (S. aureus strain 8325-4 [3]): > 875 µM

Molecule: H^1m QYNQR
- % Survival of S. aureus (S. aureus strain 8325-4 [3]): 37.3%

Molecule: H^3m PQYNQR
- % Survival of S. aureus (S. aureus strain 8325-4 [3]): 18.3%
